{"source": "patent CN106905199A", "about": "“一种基于聚集诱导发光原理用于选择性检测半胱氨酸的荧光试剂的合成及应用” (Gannan Normal University, priority 2017, dated 2017)", "key": {"[1]": {"assay": "Selectivity test of TPENNO2: GSH", "details": "300 μM GSH, 37℃, 30 min, Ex=341 nm"}, "[2]": {"test_system": "thiol compounds in HeLa cells [HeLa细胞内巯基化合物]", "assay": "Fluorescence imaging of intracellular thiols in HeLa cells", "assay_type": "cell-based, human"}, "[3]": {"assay": "Response time of TPENNO2 to Cys (fluorescence vs incubation time)", "details": "25 μM TPENNO2, PBS (50 mM, pH 7.4, 2.5% DMSO), 200 μM Cys, 37℃"}, "[4]": {"assay": "Reaction kinetics of TPENNO2 with the thiol of Cys"}, "[5]": {"assay": "Selectivity test of TPENNO2: Hcy", "details": "300 μM Hcy, 37℃, 30 min, Ex=341 nm"}, "[6]": {"assay": "Reaction kinetics of TPENNO2 with the thiol of GSH"}, "[7]": {"assay": "Selectivity test of TPENNO2: essential amino acids", "details": "25 μM TPENNO2 in PBS, 300 μM analyte, 37℃, 30 min, Ex=341 nm"}}, "data": [{"compound": "O=[N+]([O-])c1ccc(S(=O)(=O)Nc2ccc(C(=C(c3ccccc3)c3ccccc3)c3ccccc3)cc2)c([N+](=O)[O-])c1", "note": "[TPENNO2]", "values": [{"measurement": "change of fluorescence intensity after reaction with GSH", "setting": "[1]; 25 μM TPENNO2 in PBS", "result": "没有明显增强"}, {"measurement": "interference of GSH with Cys detection", "setting": "[1]", "result": "干扰均较小"}, {"measurement": "fluorescence signal in HeLa cells", "setting": "[2]; 4 μM TPENNO2, 20 min, no pretreatment, Ex 405 nm, 450-550 nm collected", "result": "绿色荧光信号"}, {"measurement": "fluorescence signal in HeLa cells after Cys pretreatment", "setting": "[2]; 0.5 mM Cys 24 h, then 4 μM TPENNO2, 20 min", "result": "荧光信号增强"}, {"measurement": "fluorescence signal in HeLa cells after NEM pretreatment", "setting": "[2]; 0.5 mM NEM (N-ethylmaleimide, thiol-consuming) 15 min, then 4 μM TPENNO2, 20 min", "result": "荧光信号减弱"}, {"measurement": "incubation time after which fluorescence intensity is essentially saturated", "setting": "[3]", "result": 30, "unit": "min"}, {"measurement": "first-order reaction kinetic constant with the thiol of Cys", "setting": "[4]", "result": 0.13, "unit": "min⁻¹"}, {"measurement": "change of fluorescence intensity after reaction with Hcy", "setting": "[5]; 25 μM TPENNO2 in PBS", "result": "没有明显增强"}, {"measurement": "interference of Hcy with Cys detection", "setting": "[5]", "result": "干扰均较小"}, {"measurement": "first-order reaction kinetic constant with the thiol of GSH", "setting": "[6]", "result": 0.0048, "unit": "min⁻¹"}, {"measurement": "change of fluorescence intensity after reaction with essential amino acids other than Cys", "setting": "[7]", "result": "没有明显增强"}]}]}
